In patent US20250025465A1, “WT-IDH1 INHIBITION USING A COVALENT AND BRAIN-PENETRANT SMALL MOLECULAR INHIBITOR FOR FERROPTOSIS INDUCTION IN HIGH-GRADE GLIOMA” (Northwestern University, priority 2021, published 2025):
pEC50, pIC50: −log10 of the molar value. Entries after “also recorded” stand apart in the source; their conditions may differ. Where two headings read alike, the source gives them in different places.

What was measured:
[1] = H&E staining of normal brain from PDX mice treated with RT+13i; type: in vivo; settings: H&E of tumor-adjacent normal cortex, hippocampus and cerebellum
From the text: (§1) (A). Treatment schedule. (B). […]. (C). Kaplan-Meyer survival benefit analysis. (D) H&E stainings of normal brain from PDX mice treated with RT+13i. *p<0.05.
(§2) . Toxicity to normal brain structures was not observed, as indicated by H&E stainings of tumor-adjacent normal cortex, hippocampus and cerebellum (FIG. 12E).

wt-IDH1 [2] = molecular target: T1, wt-IDH1 (Homo sapiens, UniProt O75874); test: cell-free wt-IDH1 enzyme inhibition; type: biochemical; settings: read-out: EC50, blocks wt-IDH1
From the text: (§3) A therapeutic strategy for the pharmacological inhibition of wt-IDH1 has been devised.
(§4) The compound 13i was developed using a high-throughput screen of a proprietary library, which encompasses 750,000 compounds. During the screen, the investigators identified a hit series, centered around compound wt-IDH1i-1, which contained a large cluster of α,β-unsaturated enones^9. As indicated by the wt-IDH1: wt-IDH1i-1 crystal structure, wt-IDH1-1i bound to a fully closed wt-IDH1 enzyme and competed with NADPH for access to the wt-IDH1 active site via formation of a covalent adduct and the […] trapping of H315 located within the NAPDH binding site^9. […] Blastp searches identified wt-IDH2 as the only NADPH-dependent enzyme that contained an NADPH binding site with significant similarity to the NADPH binding pocket found in wt-IDH1. […] Of note, while H315 and D375 are conserved between wt-IDH1 and wt-IDH2, other important amino acids, including those adjacent to D375 that form a lipophilic groove (K374/L383/A378) required for 13i binding are different, and are likely to mediate compound selectivity.
Target sequence in this assay (O75874 whole entry): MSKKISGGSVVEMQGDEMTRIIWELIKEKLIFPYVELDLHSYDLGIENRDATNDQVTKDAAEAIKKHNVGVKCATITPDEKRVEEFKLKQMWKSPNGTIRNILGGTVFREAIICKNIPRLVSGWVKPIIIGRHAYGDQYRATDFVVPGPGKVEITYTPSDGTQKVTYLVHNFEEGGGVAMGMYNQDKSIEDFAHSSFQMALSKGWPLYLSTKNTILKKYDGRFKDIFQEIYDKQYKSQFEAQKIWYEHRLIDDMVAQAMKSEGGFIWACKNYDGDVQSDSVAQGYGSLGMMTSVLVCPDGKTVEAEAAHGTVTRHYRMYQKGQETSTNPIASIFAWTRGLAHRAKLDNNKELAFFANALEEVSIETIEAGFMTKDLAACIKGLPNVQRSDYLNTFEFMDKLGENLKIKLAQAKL

wt-IDH1 [3] = molecular target: T1, wt-IDH1; test: cellular wt-IDH1 inhibition; type: cell-based; parameters: endogenous in cells
From the text: as §3
Target sequence in this assay (O75874 2-414 limits assumed): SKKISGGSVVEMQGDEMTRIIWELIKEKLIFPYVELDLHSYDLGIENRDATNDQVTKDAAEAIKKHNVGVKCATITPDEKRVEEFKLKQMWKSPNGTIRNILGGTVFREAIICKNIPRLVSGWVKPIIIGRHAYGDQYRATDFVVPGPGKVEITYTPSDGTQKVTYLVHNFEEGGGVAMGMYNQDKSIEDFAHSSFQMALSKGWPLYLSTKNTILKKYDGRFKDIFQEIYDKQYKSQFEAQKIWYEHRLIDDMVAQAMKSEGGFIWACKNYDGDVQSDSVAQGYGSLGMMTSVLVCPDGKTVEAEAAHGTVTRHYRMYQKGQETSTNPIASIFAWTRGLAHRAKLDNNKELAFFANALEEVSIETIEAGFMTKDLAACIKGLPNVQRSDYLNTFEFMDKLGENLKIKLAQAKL

HGG PDX = test: adult HGG PDX model treated with 13i and RT; type: in vivo, mice; settings: for enhancement of RT anti-tumor effect: i.p. administration, RT 2 Gy x 5
From the text: as §1, §2

HGG glioma cells = test: SYTOX green staining of glioma cells (plasma membrane rupture, ferroptosis); type: cell-based; settings: for ferroptosis / plasma membrane rupture (SYTOX green positivity): compared to vehicle control, FIG. 11; for rescue of 13i treatment effect by co-treatment: co-treatment with 13i, SYTOX green, FIG. 11A-C
[4] = see Chung et al.; cited from earlier work
recombinant wt-IDH2 = molecular target: T2, recombinant wt-IDH2 (Homo sapiens, UniProt P48735); test: NADPH production by recombinant wt-IDH2; type: biochemical; settings: FIG. 6
T2 sequence (P48735 40-452): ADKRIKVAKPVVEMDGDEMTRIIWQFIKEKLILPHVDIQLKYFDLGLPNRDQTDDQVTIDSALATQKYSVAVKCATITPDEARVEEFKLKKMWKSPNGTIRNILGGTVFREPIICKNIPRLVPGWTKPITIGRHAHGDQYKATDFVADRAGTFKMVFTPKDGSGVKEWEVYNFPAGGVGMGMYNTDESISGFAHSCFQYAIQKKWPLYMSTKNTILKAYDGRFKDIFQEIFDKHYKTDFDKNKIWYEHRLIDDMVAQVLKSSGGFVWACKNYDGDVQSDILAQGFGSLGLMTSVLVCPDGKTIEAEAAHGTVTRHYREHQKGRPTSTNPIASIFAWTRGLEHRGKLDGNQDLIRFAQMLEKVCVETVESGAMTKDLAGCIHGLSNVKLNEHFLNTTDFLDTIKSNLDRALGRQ
From the text: FIG. 6. wt-IDH1i-13 is a selective covalent wt-IDH1 inhibitor.
as §4

[5] = in vivo effects of mt-IDH1 inhibitors in HGG
From the text: (§5) As these mt-IDH1-specific inhibitors recognize an allosteric site within the enzyme dimerization domain, many of these compounds show ‘off-target’ effect against wt-IDH1, as elucidated in cell-free enzyme repression assays.

[6] = tested on: patient-derived HGG cells; test: growth and cell death in patient-derived HGG cells; type: cell-based
From the text: as §5

U87MG cells = test: clonogenic growth assay, RT enhancement upon wt-IDH1 knockdown; type: cell-based; settings: incubation with antioxidant precursor, FIG. 5A
Protocol: FIG. 5. wt-IDH1 inactivation enhances RT anti-tumor effect (A). RT enhancement ratio, as assessed via clonogenic growth assay in U87MG cells, upon genetic wt-IDH1inactivation, in the presence or absence of the ROS scavenger N-acetyl […] (NAC). (B). wt-IDH1 in doxy-treated xenogafts. (C). Tumor volume in mice subcutaneously implanted with U87MG cells carrying a doxy-inducible shIDH1 were treated with doxy and irradiated with a total of 14 Gy administered in 7 fractions of 2 Gy, and tumor volumes were measured. *p<0.05. (D.) Kaplan-Meyer estimates for tumor tripling, *p<0.005 vs. control; **p<0.001 vs. control, RT and doxy. […] Knockdown of wt-IDH1 decreased HGG cell line NADPH concentrations by 50-60%, and similarly depleted numerous NADPH-dependent metabolites, including the antioxidant glutathione (GSH). […] To determine whether combining RT and wt-IDH1 knockdown had beneficial anti-HGG effects in vivo, we established flank xenografts carrying a doxycycline (doxy)-inducible shRNA directed against wt-IDH1. A flank model was used due to the variable CNS penetrance of doxy. Immunoblotting confirmed that administration of doxy had the intended effects on wt-IDH1 expression in both inducible shIDH1 and shCo xenografts (FIG. 5B).

wt-IDH1 [7] = molecular target: T1, wt-IDH1; settings: covalent engagement with the NADPH pocket; from the screen of Jakob et al.; read-out: cell-free EC50; cited from earlier work
Target sequence in this assay (O75874 whole entry): as the sequence (O75874 whole entry) above

## C[C@@H]1C(=O)C(C#N)=C[C@]2(c3ccccc3)c3nc(Nc4ccccc4)ncc3CC[C@@H]12 [13i, (6aS,7S,10aR)-2-anilino-7-methyl-8-oxo-10a-phenyl-5,6,6a,7-tetrahydrobenzo[h] quinazoline-9-carbonitrile]
[1]
  toxicity to normal brain structures: not observed
wt-IDH1 [2]
  pEC50: 7.85
wt-IDH1 [3]
  pIC50: 5.77 to 6.10
HGG PDX; i.p. 10 mg/kg M-F, in combination with RT 2 Gy x 5, 10 mg/kg
  tumor volume / progression (bioluminescence): highly reduced tumor volume; also recorded: reduces the progression
HGG PDX; i.p. 10 mg/kg M-F, in combination with RT 2 Gy x 5, versus vehicle, 10 mg/kg
  survival: increased survival; also recorded: extends the survival
HGG PDX
  enhancement of RT anti-tumor effect: enhancement of RT anti-tumor effect
HGG PDX; listed as wt-DIH1i-13
  enhancement of RT anti-tumor effect: enhances RT anti-tumor effect in vivo
HGG glioma cells
  ferroptosis / plasma membrane rupture (SYTOX green positivity): induced plasma membrane rupture; also recorded: promotes ferroptosis
HGG glioma cells; listed as wt-DIH1i-13
  ferroptosis / plasma membrane rupture (SYTOX green positivity): promotes ferroptosis
[4]
  brain penetrance: brain-penetrant
Recombinant wt-IDH2
  fold higher EC50 against recombinant wt-IDH2 compared to wt-IDH1: 100 fold

## COc1c(C)cc(NC(=O)c2nn(Cc3ccc(F)cc3)c3c2CN(C(=O)c2ccc[nH]2)C[C@]3(C)C(N)=O)cc1C [GSK864]
[5]
  in vivo effects: moderate
[6]
  drug concentrations sufficient to impact growth and cell death: in the high micromolar range

## CC(=O)N[C@@H](CS)C(=O)O [NAC, N-acetyl cysteine, reference compound]
U87MG cells
  reversal of radiosensitization conferred by wt-IDH1 knockdown: nearly completely reversed
HGG glioma cells
  rescue of 13i treatment effect by co-treatment: rescued 13i treatment effect

## CCOC(=O)c1ccc(NC2CCCCC2)c(N)c1 [ferrostatin, reference compound]
HGG glioma cells
  rescue of 13i treatment effect by co-treatment: rescued 13i treatment effect

## C[C@@H]1C(=O)C(C#N)=C[C@]2(C)c3nc(Nc4ccccc4)ncc3CC[C@@H]12 [wt-IDH1i-1, (6aS,7S,10aR)-2-anilino-7,10a-dimethyl-8-oxo-5,6,6a,7-tetrahydrobenzo[h] quinazoline-9-carbonitrile]
wt-IDH1 [7]
  pEC50: 7.31
